Columns and labels:
mice = assay: In vivo model of ischaemia reperfusion injury in mice; set-up: species or system mouse; settings: 10 mg/kg via jugular vein
Description: Male C57/BL6 mice weighing 25-30 g were used throughout. Animals received humane care in accordance with the United Kingdom Home Office Guide on the Operation of Animal (Scientific Procedures) Act 1986, Project Licence PPL70/15358.
Animals were anaesthetised with intraperitoneal (i.p.) sodium pentobarbital at a dose of 100 mg/kg. The mice were intubated by tracheotomy and ventilated with room air using a small animal ventilator (MinVent, Type 845, Hugo Sachs Elektronik, Harvard Apparatus). The mice were then placed on a heating pad and the rectal temperature monitored and maintained at ˜37° C. using a temperature controller. During the experiments, both ECG and heart rate were continuously recorded using a PowerLab (Adinstrument, USA). […]
After 120 min reperfusion, the chest was re-opened, the heart was removed and cannulated via the thoracic aorta, and blood within the heart was washed out with saline. […] The total area of myocardium, the non-ischaemic area (which is stained with Evans blue), and the infarct area (i.e. the white area) of each slice were measured using Image-J software. The “area at risk” was calculated by subtraction of the non-ischaemic area (blue area) from the whole slice area and expressed as “percentage of the left ventricle”, and “infarct size” calculated as infarct area as a percentage of the area at risk. […]

G106V mutant of p110α = target: T1, G106V mutant of p110α (Homo sapiens, UniProt P42336, G106V); assay: ADP-Glo kinase assay, oncogenic mutant G106V; type: biochemical; settings: compared with pY
T1 construct: Full-length p110α was expressed in a complex with full-length p85α (for biochemistry and HDX-MS); 6xHis followed by TEV protease site (N); made in house; host or cells: Spodoptera frugiperda Sf9 (plasmid JB35)
Description: Co-stimulation of 1938 with pY led to an additive activatory effect for G106V, but not for the N345K and E545K mutants (FIG. 1f/FIG. 22f).
Kinase reactions were performed with ADP-Glo kinase assay kit (Promega Corporation). The enzyme, substrate and compounds were diluted in reaction buffer (20 mM HEPES, 50 mM NaCl, 50 mM KCl, 3 mM MgCl2, 1 mM EGTA, 1 mM TCEP, pH 7.4). Final concentrations of PI3Kα and PI3Kδ used were 25 nM and 50 nM for PI3Kβ. Liposomes (5% brain PI(4,5)P2, 20% brain phosphatidylserine, 45% brain phosphatidylethanolamine, 15% brain phosphatidylcholine, 10% cholesterol, 5% sphingomyelin (Avanti Polar Lipids)) were used at a final concentration of 1 mg/ml. The pY sequence is ESDGG(pY)[…](pY)[…].
For characterisation of the effects of 1938 on in vitro PI3K enzymology, all reactions were performed at room temperature with 384 white-polystyrene plates (Corning #3574). The final DMSO concentration in the assay was between 0.5%-1.8%. The reaction mixture contained 2 μl PI3K enzyme, 2 μl compound and/or pY and 2 μl of liposome substrate mixed with ATP. ATP was used at a final concentration of 200 μM, unless otherwise stated. The enzyme and compounds were pre-incubated for 10 min prior to addition of substrate. […] For enzyme kinetic calculations, data was expressed as velocity (pmol of ADP generated/sec). […]

T1 sequence (P42336 whole entry G106V): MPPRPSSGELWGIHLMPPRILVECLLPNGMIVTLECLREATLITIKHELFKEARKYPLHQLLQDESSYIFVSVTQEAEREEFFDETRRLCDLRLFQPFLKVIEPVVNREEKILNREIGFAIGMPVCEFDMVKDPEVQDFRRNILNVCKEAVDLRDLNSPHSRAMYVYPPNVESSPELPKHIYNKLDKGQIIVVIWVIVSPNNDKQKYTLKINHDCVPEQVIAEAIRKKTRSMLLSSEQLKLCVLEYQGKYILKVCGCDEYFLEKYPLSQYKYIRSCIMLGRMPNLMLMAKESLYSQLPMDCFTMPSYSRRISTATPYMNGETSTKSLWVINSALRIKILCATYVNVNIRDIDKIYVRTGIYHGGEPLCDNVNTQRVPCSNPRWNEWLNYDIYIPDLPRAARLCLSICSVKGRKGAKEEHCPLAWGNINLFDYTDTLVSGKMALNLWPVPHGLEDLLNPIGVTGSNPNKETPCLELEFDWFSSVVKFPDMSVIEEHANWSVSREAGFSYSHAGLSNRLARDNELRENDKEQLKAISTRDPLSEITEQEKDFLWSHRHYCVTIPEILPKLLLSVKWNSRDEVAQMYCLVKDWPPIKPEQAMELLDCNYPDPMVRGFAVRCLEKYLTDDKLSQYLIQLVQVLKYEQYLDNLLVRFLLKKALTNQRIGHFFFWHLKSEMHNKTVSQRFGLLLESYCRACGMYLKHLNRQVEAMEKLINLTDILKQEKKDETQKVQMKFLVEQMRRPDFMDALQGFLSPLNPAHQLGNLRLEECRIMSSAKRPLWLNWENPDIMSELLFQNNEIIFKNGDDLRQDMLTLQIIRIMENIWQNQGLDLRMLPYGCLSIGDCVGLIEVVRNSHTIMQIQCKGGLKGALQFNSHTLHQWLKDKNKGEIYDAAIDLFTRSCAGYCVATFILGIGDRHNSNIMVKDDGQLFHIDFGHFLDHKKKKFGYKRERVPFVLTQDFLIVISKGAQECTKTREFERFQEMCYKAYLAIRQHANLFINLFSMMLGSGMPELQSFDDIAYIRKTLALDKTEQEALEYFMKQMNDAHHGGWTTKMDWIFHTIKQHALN
T1 sequence (P27986 whole entry partner): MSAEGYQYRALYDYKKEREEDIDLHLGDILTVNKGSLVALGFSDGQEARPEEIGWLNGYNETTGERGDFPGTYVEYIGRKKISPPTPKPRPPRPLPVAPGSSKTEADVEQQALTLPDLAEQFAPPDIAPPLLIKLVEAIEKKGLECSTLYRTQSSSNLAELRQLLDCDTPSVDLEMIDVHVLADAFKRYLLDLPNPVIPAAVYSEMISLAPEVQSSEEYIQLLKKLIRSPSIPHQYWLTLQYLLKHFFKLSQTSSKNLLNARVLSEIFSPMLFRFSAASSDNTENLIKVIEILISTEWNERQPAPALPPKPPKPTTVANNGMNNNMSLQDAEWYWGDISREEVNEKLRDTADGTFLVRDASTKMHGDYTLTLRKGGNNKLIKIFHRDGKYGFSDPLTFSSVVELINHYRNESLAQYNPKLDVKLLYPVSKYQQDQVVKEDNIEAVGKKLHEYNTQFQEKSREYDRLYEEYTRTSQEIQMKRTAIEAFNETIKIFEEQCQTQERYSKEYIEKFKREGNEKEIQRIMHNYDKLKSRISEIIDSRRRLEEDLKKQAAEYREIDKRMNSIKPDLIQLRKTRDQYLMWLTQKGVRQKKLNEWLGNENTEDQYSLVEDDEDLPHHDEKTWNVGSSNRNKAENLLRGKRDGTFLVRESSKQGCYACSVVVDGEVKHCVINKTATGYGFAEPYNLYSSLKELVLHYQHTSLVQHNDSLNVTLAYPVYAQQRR

## CCN1CCN(c2ccc(Nc3cc(Nc4cccc5c4N(C(C)=O)CC5)ccn3)cc2)CC1 [Example 1938]
mice
  pAKT^S473 levels in the hearts of mice: corresponding increase in pAKT^S473 levels
mice; 15 min prior to reperfusion
  cardioprotection in mice: significant cardioprotection
G106V mutant of p110α
  activation of G106V mutant: levels comparable with stimulation with pY

— patent US20250263404A1, “AMINOPYRIDINES AS ACTIVATORS OF PI3 KINASE” (UCL Business Ltd, priority 2021, published 2025)
